Our source for the IC50 and Ki values is ChEMBL document CHEMBL1909046, “DrugMatrix in vitro pharmacology data”.

For assay [1], the target named is T1, Alpha-2C adrenergic receptor (Homo sapiens, UniProt P18825).
T1 sequence (P18825 whole entry): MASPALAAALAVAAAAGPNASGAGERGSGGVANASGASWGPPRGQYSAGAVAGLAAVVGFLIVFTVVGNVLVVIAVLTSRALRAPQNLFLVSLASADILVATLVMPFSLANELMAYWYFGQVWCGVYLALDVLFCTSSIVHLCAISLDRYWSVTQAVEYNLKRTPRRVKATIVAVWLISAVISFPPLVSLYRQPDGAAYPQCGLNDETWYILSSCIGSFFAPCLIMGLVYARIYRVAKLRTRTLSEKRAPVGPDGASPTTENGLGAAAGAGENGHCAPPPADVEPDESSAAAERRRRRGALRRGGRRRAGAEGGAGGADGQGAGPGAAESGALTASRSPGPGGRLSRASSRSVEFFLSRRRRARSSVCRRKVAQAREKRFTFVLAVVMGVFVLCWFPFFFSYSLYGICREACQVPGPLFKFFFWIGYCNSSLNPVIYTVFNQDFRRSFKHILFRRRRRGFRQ
Description: DRUGMATRIX: Adrenergic Alpha-2C radioligand binding (ligand: [3H] MK-912). In kind it is cell membranes, Sf9, Membrane. To be noted: for Ki: read-out: Ki.

The target of assay [2] is T2, Endothelin-1 receptor (Homo sapiens, UniProt P25101). Also: in other assays of this panel Not Active means under 50% inhibition at 10 µM.
T2 sequence (P25101 whole entry): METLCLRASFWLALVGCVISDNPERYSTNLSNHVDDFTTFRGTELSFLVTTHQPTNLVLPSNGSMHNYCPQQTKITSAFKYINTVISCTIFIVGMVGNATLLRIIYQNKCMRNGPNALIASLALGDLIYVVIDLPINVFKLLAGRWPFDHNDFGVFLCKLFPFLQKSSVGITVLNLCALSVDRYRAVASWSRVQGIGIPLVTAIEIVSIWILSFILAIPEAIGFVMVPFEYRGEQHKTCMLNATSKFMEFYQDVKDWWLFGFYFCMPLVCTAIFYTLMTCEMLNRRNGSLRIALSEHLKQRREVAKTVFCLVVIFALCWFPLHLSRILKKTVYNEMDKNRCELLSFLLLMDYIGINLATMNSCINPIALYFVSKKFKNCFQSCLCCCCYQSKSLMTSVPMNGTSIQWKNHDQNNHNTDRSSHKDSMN
In kind it is cell membranes, Membrane. To be noted: cho-k1.

Assay [3] is described as follows: DRUGMATRIX: Glutamate, AMPA radioligand binding (ligand: [3H] AMPA). In kind it is cell membranes, Rattus norvegicus, Wistar, Cerebral cortex, Membrane. The following applies: Not Active = under 50% inhibition at 10 µM.
The target in assay [4] is T3, 3-hydroxy-3-methylglutaryl-coenzyme A reductase (Homo sapiens, UniProt P04035).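 Also: enzyme inhibition assay of HMG-CoA reductase using radiolabeled [14C]HMG-CoA as substrate; in other assays of this panel Not Active means under 50% inhibition at 10 µM.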
T3 sequence (P04035 whole entry): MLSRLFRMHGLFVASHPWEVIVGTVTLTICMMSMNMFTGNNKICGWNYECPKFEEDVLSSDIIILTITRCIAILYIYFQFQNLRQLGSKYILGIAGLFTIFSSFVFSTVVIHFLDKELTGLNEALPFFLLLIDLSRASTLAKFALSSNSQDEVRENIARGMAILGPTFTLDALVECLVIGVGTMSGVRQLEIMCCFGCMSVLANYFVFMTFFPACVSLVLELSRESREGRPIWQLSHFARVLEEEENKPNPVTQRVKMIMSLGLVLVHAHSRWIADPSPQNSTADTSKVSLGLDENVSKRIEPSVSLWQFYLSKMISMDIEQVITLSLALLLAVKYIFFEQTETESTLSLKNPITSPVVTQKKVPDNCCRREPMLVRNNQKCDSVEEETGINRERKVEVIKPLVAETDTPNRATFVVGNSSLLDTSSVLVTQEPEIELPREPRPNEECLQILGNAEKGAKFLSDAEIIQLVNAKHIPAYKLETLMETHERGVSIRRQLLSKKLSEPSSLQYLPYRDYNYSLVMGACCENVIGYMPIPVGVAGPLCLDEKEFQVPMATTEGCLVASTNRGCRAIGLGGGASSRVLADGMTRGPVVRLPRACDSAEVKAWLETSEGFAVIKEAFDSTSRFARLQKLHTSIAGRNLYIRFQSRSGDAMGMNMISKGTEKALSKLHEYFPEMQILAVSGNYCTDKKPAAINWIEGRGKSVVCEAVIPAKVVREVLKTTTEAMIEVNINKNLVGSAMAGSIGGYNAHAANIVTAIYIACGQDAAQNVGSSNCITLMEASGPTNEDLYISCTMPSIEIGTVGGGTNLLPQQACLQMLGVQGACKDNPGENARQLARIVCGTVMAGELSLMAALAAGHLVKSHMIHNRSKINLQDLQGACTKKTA
Further details: species or system Escherichia coli.

For assay [5], the target named is Melanocortin receptor 4 (Homo sapiens, UniProt P32245). In kind it is cell membranes, Membrane. The following applies: hek293. Also: in other assays of this panel Not Active means under 50% inhibition at 10 µM.
Assay [6] deals with cGMP-specific 3',5'-cyclic phosphodiesterase (Homo sapiens, UniProt O76074). Description: DRUGMATRIX: Phosphodiesterase PDE5 enzyme inhibition (substrate: [3H]cGMP + cGMP). In kind it is tissue-based. The following applies: platelet; Not Active = under 50% inhibition at 10 µM.
The target of assay [7] is Mitogen-activated protein kinase 3 (Homo sapiens, UniProt P27361). Description: DRUGMATRIX: Protein Serine/Threonine Kinase, ERK1 enzyme inhibition (substrate: Myelin Basic Protein). Further details: species or system Escherichia coli. The following applies: Not Active = under 50% inhibition at 10 µM.
The target of assay [8] is 5-hydroxytryptamine receptor 1B (Rattus norvegicus, UniProt P28564). It counts as cell membranes, Wistar, Cerebral cortex, Membrane. Also: in other assays of this panel Not Active means under 50% inhibition at 10 µM.

A word on the IC50: it is the point on the concentration scale where inhibition reaches its midpoint. The term Ki denotes a dissociation constant, usually derived from enzyme kinetics or from competition with a known ligand.

Sequence of Mitogen-activated protein kinase 3 (P27361 whole entry): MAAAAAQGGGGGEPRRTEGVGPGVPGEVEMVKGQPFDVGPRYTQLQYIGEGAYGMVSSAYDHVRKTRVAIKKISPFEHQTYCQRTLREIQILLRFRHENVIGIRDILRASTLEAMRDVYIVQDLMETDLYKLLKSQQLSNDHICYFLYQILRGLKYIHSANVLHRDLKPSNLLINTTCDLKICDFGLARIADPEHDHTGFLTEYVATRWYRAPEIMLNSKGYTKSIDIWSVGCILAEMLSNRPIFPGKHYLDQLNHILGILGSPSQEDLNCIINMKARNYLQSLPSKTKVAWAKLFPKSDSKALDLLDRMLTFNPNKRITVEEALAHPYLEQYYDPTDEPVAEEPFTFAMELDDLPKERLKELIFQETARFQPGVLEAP
Sequence of 5-hydroxytryptamine receptor 1B (P28564 whole entry): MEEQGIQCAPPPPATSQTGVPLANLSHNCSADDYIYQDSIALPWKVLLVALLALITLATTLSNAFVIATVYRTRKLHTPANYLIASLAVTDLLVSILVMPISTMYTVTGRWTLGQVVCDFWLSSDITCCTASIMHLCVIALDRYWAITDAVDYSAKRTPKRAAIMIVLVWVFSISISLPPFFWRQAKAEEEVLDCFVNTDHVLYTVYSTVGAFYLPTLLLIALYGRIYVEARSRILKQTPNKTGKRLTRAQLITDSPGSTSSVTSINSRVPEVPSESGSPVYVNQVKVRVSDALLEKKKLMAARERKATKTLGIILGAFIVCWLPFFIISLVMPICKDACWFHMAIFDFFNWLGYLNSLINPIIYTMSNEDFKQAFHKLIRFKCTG
Sequence of Melanocortin receptor 4 (P32245 whole entry): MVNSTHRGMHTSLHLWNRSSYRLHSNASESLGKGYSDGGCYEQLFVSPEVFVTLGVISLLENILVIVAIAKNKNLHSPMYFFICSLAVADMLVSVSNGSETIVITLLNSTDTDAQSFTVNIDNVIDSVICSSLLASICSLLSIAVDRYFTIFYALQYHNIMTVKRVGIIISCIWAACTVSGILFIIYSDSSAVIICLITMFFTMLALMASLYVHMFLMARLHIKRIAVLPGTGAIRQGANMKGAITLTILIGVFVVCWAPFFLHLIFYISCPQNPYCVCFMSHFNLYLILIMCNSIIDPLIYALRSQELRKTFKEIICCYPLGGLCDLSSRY

As to `Cn1c(=O)c2c(ncn2CC2OCCO2)n(C)c1=O` [DOXOFYLLINE], the IC50 result in assay [1] (sf9), in assay [2], in assay [3], in assay [4], in assay [5] and in assay [6] was “Not Active” in each case. The IC50 entry in assay [7] and in assay [8] was “Not Active” throughout. The inhibition constant Ki result in assay [3] is reported as “Not Active”.

Consider `COc1cccc2c1C(=O)c1c(O)c3c(c(O)c1C2=O)C[C@@](O)(C(=O)CO)C[C@@H]3O[C@H]1C[C@H](N)[C@H](O)[C@H](C)O1` [DOXORUBICIN], for which the IC50 result in assay [1] (sf9), in assay [2], in assay [3], in assay [4], in assay [5] and in assay [6] was “Not Active” in each case. For the same molecule, the 50% inhibitory concentration (IC50) result in assay [7] is “Not Active”; in assay [8] (read-out: IC50), 34.5 µM. The inhibition constant Ki result in assay [3] is “Not Active”; in assay [8] (read-out: Ki) it was 15.7 µM.

Take `COc1cccc2c1C(=O)c1c(O)c3c(c(O)c1C2=O)C[C@@](O)(C(=O)CO)C[C@@H]3O[C@H]1C[C@H](N)[C@@H](O)[C@H](C)O1` [EPIRUBICIN]: the 50% inhibitory concentration (IC50) result in assay [1] (sf9), in assay [2], in assay [3], in assay [4], in assay [5] and in assay [6] was “Not Active” each time. For the same molecule, the IC50 result in assay [7] and in assay [8] was “Not Active” in each case. Moreover, the Ki result in assay [3] is reported as “Not Active”.

Take `C[C@]12CC[C@@H]3c4ccc(OC(=O)c5ccccc5)cc4CC[C@H]3[C@@H]1CC[C@@H]2O` [ESTRADIOL BENZOATE]: the IC50 in assay [1] (read-out: IC50) was 24.6 µM; in assay [2], “Not Active”; in assay [3], “Not Active”; in assay [4] it was “Not Active”; in assay [5] it was “Not Active”; in assay [6] it was “Not Active”. In addition, the IC50 entry in assay [7] and in assay [8] was “Not Active” in each case. For the same molecule, the Ki in assay [1] was 3.58 µM; in assay [3], “Not Active”.

In the case of `C[C@]12CC[C@@H]3c4ccc(O)cc4CC[C@H]3[C@@H]1CC[C@@H]2O` [ESTRADIOL], the IC50 result in assay [1] (sf9), in assay [2], in assay [3], in assay [4], in assay [5] and in assay [6] was “Not Active” in each case. For the same molecule, the half-inhibitory concentration (IC50) entry in assay [7] and in assay [8] was “Not Active” in each case. In addition, the Ki result in assay [3] was “Not Active”.

On to `CC[C@@H](CO)NCCN[C@@H](CC)CO` [ETHAMBUTOL], for which the IC50 result in assay [1] (sf9), in assay [2], in assay [3], in assay [4], in assay [5] and in assay [6] was “Not Active” each time. Further, the IC50 result in assay [7] and in assay [8] was “Not Active” in each case. The Ki entry in assay [3] is given as “Not Active”.

For the molecule `CC1(C)O[C@@H]2C[C@H]3[C@@H]4C[C@H](F)C5=CC(=O)C=C[C@]5(C)[C@H]4[C@@H](O)C[C@]3(C)[C@]2(C(=O)CO)O1` [FLUNISOLIDE], the 50% inhibitory concentration (IC50) result in assay [1] (sf9), in assay [2], in assay [3], in assay [4], in assay [5] and in assay [6] was “Not Active” each time. Also, the half-maximal inhibitory concentration (IC50) result in assay [7] and in assay [8] was “Not Active” each time. The inhibitory constant (Ki) entry in assay [3] is reported as “Not Active”.

For `CC1(C)O[C@@H]2C[C@H]3[C@@H]4C[C@H](F)C5=CC(=O)C=C[C@]5(C)[C@@]4(F)[C@@H](O)C[C@]3(C)[C@]2(C(=O)CO)O1` [FLUOCINOLONE ACETONIDE], the 50% inhibitory concentration (IC50) entry in assay [1] (sf9), in assay [2], in assay [3], in assay [4], in assay [5] and in assay [6] was “Not Active” each time. The half-inhibitory concentration (IC50) result in assay [7] and in assay [8] was “Not Active” in each case. Further, the Ki entry in assay [3] was “Not Active”.

In the case of `CC1(C)O[C@@H]2C[C@H]3[C@@H]4C[C@H](F)C5=CC(=O)CC[C@]5(C)[C@H]4[C@@H](O)C[C@]3(C)[C@]2(C(=O)CO)O1` [FLURANDRENOLIDE], the 50% inhibitory concentration (IC50) result in assay [1] (sf9), in assay [2], in assay [3], in assay [4], in assay [5] and in assay [6] was “Not Active” throughout. The IC50 entry in assay [7] and in assay [8] was “Not Active” throughout. Moreover, the Ki result in assay [3] was “Not Active”.

In the case of `CN(C)c1ccc(C(=C2C=CC(=[N+](C)C)C=C2)c2ccc(N(C)C)cc2)cc1.[Cl-]` [GENTIAN VIOLET], the 50% inhibitory concentration (IC50) was 1.88 µM in assay [1] (read-out: IC50); “Not Active” in assay [2]; “Not Active” in assay [3]; “Not Active” in assay [4]; “Not Active” in assay [5]; “Not Active” in assay [6]. Also, the half-maximal inhibitory concentration (IC50) entry in assay [7] and in assay [8] was “Not Active” in each case. In addition, the inhibition constant Ki is 0.274 µM in assay [1] and “Not Active” in assay [3].

As to `Cc1ccc(S(=O)(=O)NC(=O)NN2CC3CCCC3C2)cc1` (centres undefined) [GLICLAZIDE], the IC50 entry in assay [1] (sf9), in assay [2], in assay [3], in assay [4], in assay [5] and in assay [6] was “Not Active” throughout. Also, the half-inhibitory concentration (IC50) result in assay [7] and in assay [8] was “Not Active” throughout. The Ki entry in assay [3] is recorded as “Not Active”.

In the case of `NC(=O)NO` [HYDROXYUREA], the IC50 entry in assay [1] (sf9), in assay [2], in assay [3], in assay [4], in assay [5] and in assay [6] was “Not Active” throughout. The IC50 result in assay [7] and in assay [8] was “Not Active” in each case. In assay [3], the Ki result was “Not Active”.

Turning to `CC(C)Cc1ccc(C(C)C(=O)O)cc1` (centres undefined) [IBUPROFEN], the IC50 entry in assay [1] (sf9), in assay [2], in assay [3], in assay [4], in assay [5] and in assay [6] was “Not Active” in each case. For the same molecule, the IC50 result in assay [7] and in assay [8] was “Not Active” throughout. In addition, in assay [3], the Ki result is recorded as “Not Active”.

Regarding `COc1ccc2c(c1)c(CC(=O)O)c(C)n2C(=O)c1ccc(Cl)cc1` [INDOMETHACIN], the IC50 result in assay [1] (sf9), in assay [2], in assay [3], in assay [4], in assay [5] and in assay [6] was “Not Active” throughout. Further, the IC50 entry in assay [7] and in assay [8] was “Not Active” throughout. Besides, the inhibitory constant (Ki) entry in assay [3] is “Not Active”.
